In ChEMBL document CHEMBL3875189, “A benzo[b]thiophene-based selective type 4 S1P receptor agonist” (Bioorg Med Chem Lett, 2017):
pEC50: −log10 of the molar value. Active and inactive are the calls of the source. The calls are words filed in the database; no cut-off is given here.

Tests used:
[1] = biological target: T1, Sphingosine 1-phosphate receptor 5 (Homo sapiens, UniProt Q9H228); test: Agonist activity at recombinant human S1PR5 expressed in CHO cell membranes assessed as [35S]GTP-gammaS binding measured after 1.5 hrs by TopCount scintillation counting method
[2] = biological target: T2, Sphingosine 1-phosphate receptor 4 (Homo sapiens, UniProt O95977); test: Agonist activity at recombinant human S1PR4 expressed in CHO cell membranes assessed as [35S]GTP-gammaS binding measured after 1.5 hrs by TopCount scintillation counting method
T2 sequence (O95977 whole entry): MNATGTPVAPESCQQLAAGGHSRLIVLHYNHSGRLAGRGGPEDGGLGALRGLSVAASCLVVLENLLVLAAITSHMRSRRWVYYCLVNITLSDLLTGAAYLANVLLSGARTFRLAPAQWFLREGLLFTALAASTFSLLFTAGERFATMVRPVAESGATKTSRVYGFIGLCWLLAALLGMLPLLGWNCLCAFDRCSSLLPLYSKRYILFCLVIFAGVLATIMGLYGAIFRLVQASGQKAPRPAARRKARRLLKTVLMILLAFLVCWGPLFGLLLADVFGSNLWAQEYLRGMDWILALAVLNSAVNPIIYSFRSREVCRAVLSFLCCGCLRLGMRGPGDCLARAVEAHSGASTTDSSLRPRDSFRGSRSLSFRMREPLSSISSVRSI

[3] = biological target: T1, Sphingosine 1-phosphate receptor 5; test: Agonist activity at recombinant human S1PR5 expressed in CHO cell membranes assessed as [35S]GTP-gammaS binding measured after 1.5 hrs by TopCount scintillation counting method relative to S1P
[4] = biological target: T3, Sphingosine 1-phosphate receptor 1 (Homo sapiens, UniProt P21453); test: Agonist activity at recombinant human S1PR1 expressed in CHO cell membranes assessed as [35S]GTP-gammaS binding measured after 1.5 hrs by TopCount scintillation counting method
[5] = biological target: Sphingosine 1-phosphate receptor 2 (Homo sapiens, UniProt O95136); test: Agonist activity at recombinant human S1PR2 expressed in CHO cell membranes assessed as [35S]GTP-gammaS binding measured after 1.5 hrs by TopCount scintillation counting method
[6] = biological target: Sphingosine 1-phosphate receptor 3 (Homo sapiens, UniProt Q99500); test: Agonist activity at recombinant human S1PR3 expressed in CHO cell membranes assessed as [35S]GTP-gammaS binding measured after 1.5 hrs by TopCount scintillation counting method
[7] = biological target: T1, Sphingosine 1-phosphate receptor 5; test: Activation of human S1PR5 expressed in CHO cells assessed as suppression of forskolin-induced intracellular cAMP level at 1 to 10 uM measured after 15 mins by ELISA; format: functional, cell-based
[8] = biological target: T3, Sphingosine 1-phosphate receptor 1; test: Activation of human S1PR1 expressed in CHO cells assessed as suppression of forskolin-induced intracellular cAMP level at 1 to 10 uM measured after 15 mins by ELISA; format: functional, cell-based
[9] = biological target: T3, Sphingosine 1-phosphate receptor 1; test: Activation of human S1PR1 expressed in CHO cells assessed as ERK1/2 phosphorylation at 1 to 10 uM treated under serum-free condition post 1 day serum starvation measured after 10 to 30 mins by Western blot analysis; format: cell-based

T3 sequence (P21453 whole entry): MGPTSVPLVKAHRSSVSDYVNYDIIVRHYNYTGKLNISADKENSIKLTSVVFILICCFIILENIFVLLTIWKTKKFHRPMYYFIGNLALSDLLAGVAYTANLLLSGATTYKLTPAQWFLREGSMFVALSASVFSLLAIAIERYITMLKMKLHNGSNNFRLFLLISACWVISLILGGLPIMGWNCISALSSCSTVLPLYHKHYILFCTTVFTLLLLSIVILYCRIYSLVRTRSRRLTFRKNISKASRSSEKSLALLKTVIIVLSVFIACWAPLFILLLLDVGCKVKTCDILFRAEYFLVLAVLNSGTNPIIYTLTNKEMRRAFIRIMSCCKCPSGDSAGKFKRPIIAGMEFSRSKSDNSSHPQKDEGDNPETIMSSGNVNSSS
Chain of Sphingosine 1-phosphate receptor 3 (Q99500 whole entry): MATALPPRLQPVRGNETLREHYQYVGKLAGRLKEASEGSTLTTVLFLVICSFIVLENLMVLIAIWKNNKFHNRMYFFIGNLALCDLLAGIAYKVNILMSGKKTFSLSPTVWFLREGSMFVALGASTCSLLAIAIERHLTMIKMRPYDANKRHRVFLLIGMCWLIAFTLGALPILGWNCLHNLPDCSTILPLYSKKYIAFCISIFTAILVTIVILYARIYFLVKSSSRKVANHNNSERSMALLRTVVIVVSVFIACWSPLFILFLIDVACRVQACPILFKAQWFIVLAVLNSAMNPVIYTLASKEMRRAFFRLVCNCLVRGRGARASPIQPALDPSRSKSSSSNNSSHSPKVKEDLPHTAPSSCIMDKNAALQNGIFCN
Chain of Sphingosine 1-phosphate receptor 2 (O95136 whole entry): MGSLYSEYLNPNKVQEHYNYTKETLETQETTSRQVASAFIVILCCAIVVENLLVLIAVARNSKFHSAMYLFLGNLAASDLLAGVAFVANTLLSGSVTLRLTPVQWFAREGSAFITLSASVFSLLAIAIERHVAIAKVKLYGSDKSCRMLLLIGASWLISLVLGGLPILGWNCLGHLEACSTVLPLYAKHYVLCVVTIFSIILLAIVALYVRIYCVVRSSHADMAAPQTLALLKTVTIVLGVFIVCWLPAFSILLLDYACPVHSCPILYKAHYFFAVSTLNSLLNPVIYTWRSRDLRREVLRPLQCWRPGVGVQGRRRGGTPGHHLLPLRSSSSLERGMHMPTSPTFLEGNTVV
T1 sequence (Q9H228 whole entry): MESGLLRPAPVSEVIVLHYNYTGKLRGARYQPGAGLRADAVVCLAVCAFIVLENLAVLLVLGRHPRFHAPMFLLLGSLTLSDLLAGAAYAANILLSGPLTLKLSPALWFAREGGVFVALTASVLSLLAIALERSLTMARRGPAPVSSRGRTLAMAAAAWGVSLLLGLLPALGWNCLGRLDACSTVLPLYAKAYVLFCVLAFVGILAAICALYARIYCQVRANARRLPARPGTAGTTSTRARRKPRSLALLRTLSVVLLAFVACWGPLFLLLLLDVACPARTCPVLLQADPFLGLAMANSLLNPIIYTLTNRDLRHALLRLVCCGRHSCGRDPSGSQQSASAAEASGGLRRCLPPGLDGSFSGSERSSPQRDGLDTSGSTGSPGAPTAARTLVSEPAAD

pEC50 [1] | pEC50 [2] | Efficacy [3] | SMILES | other results
< 4.00 | < 4.00 | – | CCc1ccccc1-c1cccc2cc(CNCC(=O)O)sc12 | –
5.50 | 5.41 | 26% | O=C(O)CCCNCc1cc2cccc(-c3ccc4c(c3)OCO4)c2s1 | –
5.17 | < 4.00 | 11% | CCc1ccccc1-c1cccc2sc(CNCc3ccc(C(=O)O)cc3)cc12 | –
6.30 | < 4.00 | 13% | O=C(O)C1CN(Cc2cc3cccc(-c4ccc5ccccc5c4)c3s2)C1 | –
4.99 | 5.03 | 25% | Cc1cccc(-c2cccc3cc(CNCCCC(=O)O)sc23)c1 | –
5.60 | < 4.00 | 16% | CCc1ccccc1-c1cccc2cc(CNCCCCC(=O)O)sc12 | –
5.81 | 5.51 | 25% | CCc1ccccc1-c1cccc2cc(CNCC(N)C(=O)O)sc12 (configuration not stated) | –
6.63 | 6.94 | 77% | CC(CNCc1cc2cc(-c3ccc4ccccc4c3)ccc2s1)C(=O)O (configuration not stated) | –
5.78 | 6.09 | 22% | O=C(O)Cc1cccc(NCc2cc3cccc(-c4ccc5ccccc5c4)c3s2)c1 | –
5.40 | 5.84 | 32% | O=C(O)Cc1ccc(NCc2cc3cccc(-c4ccc5ccccc5c4)c3s2)cc1 | –
5.35 | < 4.00 | 23% | O=C(O)c1ccc(CNCc2cc3cccc(-c4ccc5ccccc5c4)c3s2)cc1 | –
7.22 | 6.68 | 69% | O=C(O)CCCNCc1cc2c(-c3ccc4ccccc4c3)cccc2s1 | pEC50 [4]: < 4.00; pEC50 [5]: < 4.00; pEC50 [6]: < 4.00
7.60 | 7.42 | 78% | O=C(O)CCNCc1cc2cc(-c3ccc4ccccc4c3)ccc2s1 | –
6.82 | 5.97 | 47% | O=C(O)CCCCNCc1cc2c(-c3ccc4ccccc4c3)cccc2s1 | pEC50 [4]: < 4.00; pEC50 [5]: < 4.00; pEC50 [6]: < 4.00
6.26 | 5.72 | 15% | O=C(O)CCCNCc1cc2cccc(-c3ccc(C(F)(F)F)cc3)c2s1 | –
5.59 | < 4.00 | 15% | CCc1ccccc1-c1cccc2cc(CNCCC(=O)O)sc12 | –
7.31 | 6.48 | 18% | O=C(O)CCCNCc1cc2cccc(-c3cccc(-c4ccccc4)c3)c2s1 | –
< 4.00 | < 4.00 | – | CCc1ccccc1-c1cccc2cc(CNCCCC(=O)O)sc12 | –
< 4.00 | < 4.00 | – | CCc1ccccc1-c1cccc2sc(CNCC(=O)O)cc12 | –
6.14 | 6.27 | 69% | NC(CNCc1cc2cc(-c3ccc4ccccc4c3)ccc2s1)C(=O)O (configuration not stated) | –

pEC50 [1] | pEC50 [2] | Efficacy [3] | SMILES | other results
< 4.00 | < 4.00 | – | CCc1ccccc1-c1cccc2cc(CN3CC(C(=O)O)C3)sc12 | –
5.19 | 5.69 | 10% | O=C(O)CCCNCc1cc2cccc(-c3ccc(-c4ccccc4)cc3)c2s1 | –
6.45 | < 4.00 | 53% | O=C(O)c1ccc(CNCc2cc3c(-c4ccc5ccccc5c4)cccc3s2)cc1 | pEC50 [4]: < 4.00; pEC50 [5]: < 4.00; pEC50 [6]: < 4.00
6.15 | 6.14 | 54% | O=C(O)CCCCNCc1cc2cc(-c3ccc4ccccc4c3)ccc2s1 | –
6.57 | 5.83 | 32% | O=C(O)CNCc1cc2cccc(-c3ccc4ccccc4c3)c2s1 | –
6.76 | 6.00 | 14% | O=C(O)C1CN(Cc2cc3c(-c4ccc5ccccc5c4)cccc3s2)C1 | –
6.05 | 5.99 | 32% | CC(CNCc1cc2cccc(-c3ccc4ccccc4c3)c2s1)C(=O)O (configuration not stated) | –
5.63 | 5.70 | 25% | O=C(O)CCCNCc1cc2cccc(-c3cccc4ccccc34)c2s1 | –
< 4.00 | 4.95 | – | CCc1ccccc1-c1cccc2sc(CNCCCCC(=O)O)cc12 | –
5.32 | 5.59 | 9% | CCc1ccccc1-c1cccc2sc(CNc3ccc(CC(=O)O)cc3)cc12 | –
5.55 | 4.70 | 43% | Cc1ccc(-c2cccc3cc(CNCCCC(=O)O)sc23)cc1 | –
< 4.00 | < 4.00 | – | O=C(O)c1ccc(CNCc2cc3cc(-c4ccc5ccccc5c4)ccc3s2)cc1 | –
7.66 | < 4.00 | 50% | O=C(O)C1CN(Cc2cc3cc(-c4ccc5ccccc5c4)ccc3s2)C1 | Activity [7]: Active; Activity [8]: Active; pEC50 [4]: < 4.00; pEC50 [5]: < 4.00; pEC50 [6]: < 4.00; Activity [9]: Active
6.84 | 6.78 | 65% | O=C(O)CCCNCc1cc2cc(-c3ccc4ccccc4c3)ccc2s1 | –
< 4.00 | 4.99 | – | CCc1ccccc1-c1cccc2sc(CNCC(C)C(=O)O)cc12 (configuration not stated) | –
< 4.00 | < 4.00 | – | CCc1ccccc1-c1cccc2sc(CNCCC(=O)O)cc12 | –
6.11 | < 4.00 | 12% | O=C(O)Cc1cccc(NCc2cc3cc(-c4ccc5ccccc5c4)ccc3s2)c1 | –
6.48 | 5.96 | 34% | NC(CNCc1cc2c(-c3ccc4ccccc4c3)cccc2s1)C(=O)O (configuration not stated) | –
7.29 | 6.19 | 47% | O=C(O)CNCc1cc2c(-c3ccc4ccccc4c3)cccc2s1 | pEC50 [4]: < 4.00; pEC50 [5]: < 4.00; pEC50 [6]: < 4.00
5.33 | 5.29 | 26% | CC(C)(C)c1ccc(-c2cccc3cc(CNCCCC(=O)O)sc23)cc1 | –

pEC50 [1] | pEC50 [2] | Efficacy [3] | SMILES | other results
< 4.00 | < 4.00 | – | CCc1ccccc1-c1cccc2cc(CNCc3ccc(C(=O)O)cc3)sc12 | –
5.51 | 6.16 | 39% | O=C(O)CCCNCc1cc2cccc(-c3cccc(C(F)(F)F)c3)c2s1 | –
6.39 | 6.39 | 37% | O=C(O)CCCCNCc1cc2cccc(-c3ccc4ccccc4c3)c2s1 | –
7.51 | 6.36 | 75% | O=C(O)CCNCc1cc2c(-c3ccc4ccccc4c3)cccc2s1 | pEC50 [4]: < 4.00; pEC50 [5]: < 4.00; pEC50 [6]: < 4.00
5.67 | – | 23% | O=C(O)Cc1cccc(NCc2cc3c(-c4ccc5ccccc5c4)cccc3s2)c1 | –
5.45 | 4.87 | 7% | Cc1ccccc1-c1cccc2cc(CNCCCC(=O)O)sc12 | –
5.40 | 5.92 | 36% | CCc1ccccc1-c1cccc2cc(CNc3cccc(CC(=O)O)c3)sc12 | –
< 4.00 | < 4.00 | – | O=C(O)Cc1ccc(NCc2cc3c(-c4ccc5ccccc5c4)cccc3s2)cc1 | –
5.68 | 5.47 | 20% | CCc1ccccc1-c1cccc2cc(CNc3ccc(CC(=O)O)cc3)sc12 | –
4.67 | < 4.00 | 10% | CCc1ccccc1-c1cccc2sc(CN3CC(C(=O)O)C3)cc12 | –
< 4.00 | 5.71 | – | COc1ccc2cc(-c3cccc4cc(CNCCCC(=O)O)sc34)ccc2c1 | –
5.97 | 6.16 | 35% | NC(CNCc1cc2cccc(-c3ccc4ccccc4c3)c2s1)C(=O)O (configuration not stated) | –
6.46 | 6.46 | 63% | O=C(O)CNCc1cc2cc(-c3ccc4ccccc4c3)ccc2s1 | –
< 4.00 | 6.33 | – | CCc1ccccc1-c1cccc2sc(CNc3cccc(CC(=O)O)c3)cc12 | –
6.55 | 6.73 | 36% | O=C(O)CCNCc1cc2cccc(-c3ccc4ccccc4c3)c2s1 | –
5.37 | < 4.00 | 10% | CCc1ccccc1-c1cccc2cc(CNCC(C)C(=O)O)sc12 (configuration not stated) | –
< 4.00 | 4.74 | – | CCc1ccccc1-c1cccc2sc(CNCCCC(=O)O)cc12 | –
< 4.00 | 4.24 | – | CCc1ccccc1-c1cccc2sc(CNCC(N)C(=O)O)cc12 (configuration not stated) | –
< 4.00 | < 4.00 | – | O=C(O)Cc1ccc(NCc2cc3cc(-c4ccc5ccccc5c4)ccc3s2)cc1 | –
